Results reported in the NIST ThermoML archive (doi:10.1021/je900124n).
Values joined by “and” are separate entries in the source; they are usually repeats but may differ in a detail not shown here. Identical values can stand only once. ± gives the expanded uncertainty stated by the source.

Settings: Fluid (supercritical or subcritical phases), Buoyancy - hydrostatic balance with magnetic suspension - two sinkers

CCC [propane]
Settings | mass density
400 K, 11790 kPa | 357.33 ± 0.046 kg/m3
400 K, 11791 kPa | 357.335 ± 0.046 kg/m3 [middle of 4 runs]
400 K, 15926 kPa | 390.231 ± 0.049 kg/m3 [middle of 6 runs]
400 K, 15927 kPa | 390.233 ± 0.049 kg/m3
400 K, 17448 kPa | 398.971 ± 0.05 kg/m3
400 K, 17449 kPa | 398.975 ± 0.05 kg/m3
400 K, 17450 kPa | 398.984 ± 0.05 kg/m3 and 398.981 ± 0.05 kg/m3 and 398.978 ± 0.05 kg/m3
400 K, 29918 kPa | 445.478 ± 0.055 kg/m3
400 K, 29922 kPa | 445.491 ± 0.055 kg/m3
400 K, 29927 kPa | 445.504 ± 0.055 kg/m3
400 K, 29932 kPa | 445.516 ± 0.055 kg/m3
400 K, 29938 kPa | 445.533 ± 0.055 kg/m3
400 K, 35836 kPa | 460.067 ± 0.057 kg/m3
400 K, 35844 kPa | 460.086 ± 0.057 kg/m3
400 K, 35852 kPa | 460.105 ± 0.057 kg/m3
400 K, 35860 kPa | 460.123 ± 0.057 kg/m3
400 K, 35868 kPa | 460.142 ± 0.057 kg/m3
400.01 K, 3901.8 kPa | 73.2154 ± 0.043 kg/m3
400.01 K, 3902 kPa | 73.2198 ± 0.043 kg/m3
400.01 K, 10112 kPa | 336.233 ± 0.048 kg/m3 and 336.235 ± 0.048 kg/m3 and 336.236 ± 0.048 kg/m3
420 K, 352.46 kPa | 4.5346 ± 0.0029 kg/m3 and 4.5345 ± 0.0029 kg/m3 and 4.5347 ± 0.0029 kg/m3
420 K, 352.47 kPa | 4.5348 ± 0.0029 kg/m3
420 K, 629.66 kPa | 8.229 ± 0.0033 kg/m3
420 K, 629.67 kPa | 8.2291 ± 0.0033 kg/m3
420 K, 990.94 kPa | 13.2257 ± 0.0039 kg/m3
420 K, 991.11 kPa | 13.2302 ± 0.0039 kg/m3
420 K, 992.11 kPa | 13.2437 ± 0.0039 kg/m3
420 K, 993.37 kPa | 13.2618 ± 0.0039 kg/m3
420 K, 994.27 kPa | 13.2745 ± 0.0039 kg/m3
420 K, 1638.8 kPa | 22.7735 ± 0.022 kg/m3 and 22.7726 ± 0.022 kg/m3
420 K, 1639 kPa | 22.7748 ± 0.022 kg/m3
420 K, 1639.4 kPa | 22.7815 ± 0.022 kg/m3 and 22.7817 ± 0.022 kg/m3
420 K, 2549.6 kPa | 37.6977 ± 0.026 kg/m3
420 K, 2549.8 kPa | 37.6995 ± 0.026 kg/m3 and 37.7007 ± 0.026 kg/m3 and 37.7006 ± 0.026 kg/m3
420 K, 3591.6 kPa | 57.6483 ± 0.029 kg/m3
420 K, 3591.8 kPa | 57.649 ± 0.029 kg/m3
420 K, 3592 kPa | 57.6554 ± 0.029 kg/m3 and 57.6545 ± 0.029 kg/m3
420 K, 3592.3 kPa | 57.6606 ± 0.029 kg/m3
420 K, 4243.9 kPa | 72.25 ± 0.037 kg/m3
420 K, 4244 kPa | 72.2514 ± 0.037 kg/m3
420 K, 5253.6 kPa | 99.376 ± 0.016 kg/m3 and 99.3762 ± 0.016 kg/m3
420 K, 5253.7 kPa | 99.3774 ± 0.016 kg/m3 and 99.3766 ± 0.016 kg/m3 and 99.3783 ± 0.016 kg/m3
420 K, 6605.8 kPa | 147.752 ± 0.054 kg/m3
420 K, 6605.9 kPa | 147.756 ± 0.054 kg/m3 and 147.757 ± 0.054 kg/m3
420 K, 6606 kPa | 147.761 ± 0.054 kg/m3 and 147.757 ± 0.054 kg/m3
420 K, 6612.9 kPa | 148.072 ± 0.023 kg/m3
420 K, 6613 kPa | 148.069 ± 0.023 kg/m3
420 K, 6613.1 kPa | 148.07 ± 0.023 kg/m3 and 148.073 ± 0.023 kg/m3
420 K, 6613.2 kPa | 148.071 ± 0.023 kg/m3
420 K, 6780.5 kPa | 155.128 ± 0.054 kg/m3 and 155.129 ± 0.054 kg/m3
420 K, 6780.6 kPa | 155.129 ± 0.054 kg/m3 and 155.128 ± 0.054 kg/m3
420 K, 7709.3 kPa | 196.595 ± 0.063 kg/m3
420 K, 7709.5 kPa | 196.603 ± 0.063 kg/m3
420 K, 7709.6 kPa | 196.603 ± 0.063 kg/m3
420 K, 7709.7 kPa | 196.608 ± 0.063 kg/m3 and 196.605 ± 0.063 kg/m3 and 196.607 ± 0.063 kg/m3
420 K, 7709.8 kPa | 196.607 ± 0.063 kg/m3
420 K, 7709.9 kPa | 196.61 ± 0.063 kg/m3
420 K, 8228.3 kPa | 219.041 ± 0.046 kg/m3
420 K, 8228.4 kPa | 219.041 ± 0.046 kg/m3 and 219.043 ± 0.046 kg/m3
420 K, 8228.5 kPa | 219.044 ± 0.046 kg/m3 and 219.042 ± 0.046 kg/m3 and 219.043 ± 0.046 kg/m3
420 K, 8228.6 kPa | 219.042 ± 0.046 kg/m3 and 219.043 ± 0.046 kg/m3
420 K, 8848 kPa | 242.768 ± 0.043 kg/m3 and 242.766 ± 0.043 kg/m3 and 242.77 ± 0.043 kg/m3
420 K, 8848.1 kPa | 242.767 ± 0.043 kg/m3
420 K, 8848.2 kPa | 242.772 ± 0.043 kg/m3 and 242.768 ± 0.043 kg/m3
420 K, 10126 kPa | 279.933 ± 0.043 kg/m3 and 279.935 ± 0.043 kg/m3
420 K, 10127 kPa | 279.933 ± 0.043 kg/m3 and 279.936 ± 0.043 kg/m3 and 279.935 ± 0.043 kg/m3
420 K, 13593 kPa | 335.538 ± 0.044 kg/m3 [middle of 4 runs]
420 K, 20930 kPa | 389.39 ± 0.05 kg/m3
420 K, 20931 kPa | 389.391 ± 0.05 kg/m3 and 389.393 ± 0.05 kg/m3
420.01 K, 629.66 kPa | 8.2291 ± 0.0033 kg/m3
420.01 K, 629.67 kPa | 8.229 ± 0.0033 kg/m3
420.01 K, 4243.9 kPa | 72.2481 ± 0.037 kg/m3 and 72.2491 ± 0.037 kg/m3 and 72.2487 ± 0.037 kg/m3
420.01 K, 4244 kPa | 72.2505 ± 0.037 kg/m3 and 72.2532 ± 0.037 kg/m3 and 72.2519 ± 0.037 kg/m3
420.01 K, 6606 kPa | 147.759 ± 0.054 kg/m3
420.01 K, 6606.4 kPa | 147.771 ± 0.054 kg/m3
420.01 K, 13593 kPa | 335.538 ± 0.044 kg/m3 and 335.537 ± 0.044 kg/m3
420.01 K, 20931 kPa | 389.392 ± 0.05 kg/m3 and 389.394 ± 0.05 kg/m3
420.01 K, 20932 kPa | 389.393 ± 0.05 kg/m3
440 K, 368.32 kPa | 4.5138 ± 0.0029 kg/m3 and 4.514 ± 0.0029 kg/m3 and 4.5139 ± 0.0029 kg/m3
440 K, 658.93 kPa | 8.1892 ± 0.0033 kg/m3
440 K, 658.95 kPa | 8.1897 ± 0.0033 kg/m3
440 K, 1032.5 kPa | 13.0703 ± 0.0039 kg/m3 and 13.0712 ± 0.0039 kg/m3
440 K, 1032.8 kPa | 13.0744 ± 0.0039 kg/m3
440 K, 1733.1 kPa | 22.7483 ± 0.021 kg/m3
440 K, 1733.2 kPa | 22.75 ± 0.021 kg/m3 and 22.7499 ± 0.021 kg/m3 and 22.7504 ± 0.021 kg/m3
440 K, 1733.4 kPa | 22.752 ± 0.021 kg/m3
440 K, 2721.5 kPa | 37.7309 ± 0.024 kg/m3
440 K, 2721.7 kPa | 37.7344 ± 0.024 kg/m3
440 K, 2721.8 kPa | 37.7372 ± 0.024 kg/m3
440 K, 2721.9 kPa | 37.7372 ± 0.024 kg/m3
440 K, 2722.1 kPa | 37.7402 ± 0.024 kg/m3
440 K, 3865 kPa | 57.5204 ± 0.027 kg/m3
440 K, 3865.3 kPa | 57.5255 ± 0.027 kg/m3
440 K, 3865.4 kPa | 57.5267 ± 0.027 kg/m3
440 K, 3865.5 kPa | 57.5266 ± 0.027 kg/m3
440 K, 3865.7 kPa | 57.532 ± 0.027 kg/m3
440 K, 4613.1 kPa | 72.2413 ± 0.012 kg/m3 [middle of 4 runs]
440 K, 5803.9 kPa | 99.3306 ± 0.016 kg/m3 and 99.3318 ± 0.016 kg/m3
440 K, 5804 kPa | 99.3333 ± 0.016 kg/m3 and 99.3338 ± 0.016 kg/m3
440 K, 7526.8 kPa | 147.61 ± 0.042 kg/m3 and 147.611 ± 0.042 kg/m3
440 K, 7535.9 kPa | 147.904 ± 0.022 kg/m3 and 147.903 ± 0.022 kg/m3
440 K, 7536 kPa | 147.904 ± 0.022 kg/m3
440 K, 7762.5 kPa | 154.944 ± 0.043 kg/m3
440 K, 7762.6 kPa | 154.945 ± 0.043 kg/m3 and 154.944 ± 0.043 kg/m3
440 K, 9826.6 kPa | 218.701 ± 0.053 kg/m3 and 218.702 ± 0.053 kg/m3 and 218.7 ± 0.053 kg/m3
440 K, 9826.7 kPa | 218.702 ± 0.053 kg/m3 and 218.7 ± 0.053 kg/m3 and 218.701 ± 0.053 kg/m3
440.01 K, 658.93 kPa | 8.1888 ± 0.0033 kg/m3
440.01 K, 658.95 kPa | 8.1894 ± 0.0033 kg/m3 and 8.1895 ± 0.0033 kg/m3
440.01 K, 1032.5 kPa | 13.0692 ± 0.0039 kg/m3
440.01 K, 1032.8 kPa | 13.0752 ± 0.0039 kg/m3
440.01 K, 4613.1 kPa | 72.2397 ± 0.012 kg/m3 and 72.2408 ± 0.012 kg/m3 and 72.2337 ± 0.012 kg/m3
440.01 K, 7526.8 kPa | 147.613 ± 0.042 kg/m3 and 147.61 ± 0.042 kg/m3 and 147.611 ± 0.042 kg/m3
440.01 K, 7526.9 kPa | 147.613 ± 0.042 kg/m3 and 147.612 ± 0.042 kg/m3
460 K, 384.07 kPa | 4.4943 ± 0.0029 kg/m3 [middle of 5 runs]
460 K, 687.74 kPa | 8.1494 ± 0.0033 kg/m3
